Measured values from article PMC12120644, “Modulation of the Inflammatory Process through the Control of Cyclooxygenase Using Peptides Obtained from Lithobates Catesbeianus Identified by Molecular Docking” (ACS Omega, 2025).
Entries after “also recorded” stand apart in the source; their conditions may differ. No end group written: not given here.

How the values were obtained:
[1] = system: total cyclooxygenase; assay: COX inhibition assay (total COX activity, LPS-stimulated RAW 264.7); format: cell-based; details: RAW 264.7 stimulated with LPS 1 μg/mL for 4 h, peptide 1 mM, chemiluminescent enzymatic kit (Cayman), vs LPS control, t test P < 0.05
Method: The in vitro total cyclooxygenase inhibition was evaluated using a chemiluminescent enzymatic kit (Cayman Chemical, MI), according to the manufacturer’s protocol. The RAW 264.7 cell line was purchased from the American Type Culture Collection (Rockville, MD) and routinely grown in DMEM supplemented with 10% fetal bovine serum (FBS). The cells were subcultured every 3 to 4 days at 1 × 10^8 cells/mL. The positive control group was exposed to lipopolysaccharide (LPS) at 1 μg/mL for 4 h to induce inflammation. Cells were collected and centrifuged at 600g for 10 min at 4 °C. The supernatant was carefully removed and cells were resuspended in 2 mL of DMEM, resulting in 1 × 10^8 cells/mL.
4 Effect of SGHPGAMGPVGPR (P1), IGPAGSAGSR (P2), GPSGPAGARGDK (P3), and […] (P4) peptides on the total COX activity. The RAW 264.7 cells were subcultured at 1 × 10^8 cells/mL density and stimulated with LPS at 1 μg/mL for 4 h. Cells were collected by centrifugation at a speed of 2.000 rpm for 10 min at 4 °C and were resuspended in DMEM. After that, cells were treated with the peptides, and ELISA was performed. Significant by the t test (P < 0.05). CTRL: control (cells stimulated with LPS).

[2] = system: IL-6; assay: IL-6 immunoassay (ELISA), LPS-stimulated macrophages; format: cell-based, murine; details: LPS 1 μg/mL for 4 h, 1 mM the only significant of 0.025, 0.05, 0.5, and 1 mM, ELISA 405 nm
Method: Quantification of IL-6 was determined using the Murine Mini ABTS IL-6 ELISA kit (PeproTech, Cat No. 900-M50), according to the manufacturer’s instructions. The absorbance was measured at 405 nm, and IL-6 concentrations were quantified based on the IL-6 standard curve (0−4000 pg/mL).
5 IL-6 concentration (pg/mL) in macrophages treated at 0.025, 0.05, 0.5, and 1.0 mM peptide 1 and exposure to 1 μg/mL LPS for 4 h. Ctrl-: Negative control (cells + DMEM); Ctrl+: Positive control 1 (cells + DMEM+ and LPS); P1 (cells + DMEM + peptide at different concentrations + LPS). Data (n = 3) are expressed as mean and standard error.

## SGHPGAMGPVGPR [Peptide P1]
[1]
  total COX activity (in words): effectively inhibiting total COX activity; also recorded: only peptide P1 exhibited an inhibitory capacity on the total COX activity; also recorded: only P1 demonstrated the ability to reduce the total COX activity
[1]; listed as peptide 1
  total COX activity (in words): best results in decreasing the cells’ total COX
[2]; n = 3
  IL-6 levels (in words): downregulating IL-6 expression; also recorded: significantly downregulated IL-6 levels in a dose-dependent manner
[2]; n = 3, listed as peptide 1
  IL-6 levels (in words): best results in decreasing the cells’ total COX and IL-6 cytokines
